Reference: patent publication US10695434B2, “Preventing central nervous system induced nausea through use of vitamin B12 conjugation” (Syracuse University, priority 2018, dated 2020)
One block for each compound: values may come before it.

Legend:
[1] = Energy balance: chow intake and body weight after SC injection; type: in vivo, Sprague Dawley rats; settings: rats
Method: Shortly before the onset of the dark phase, rats (n=12) were given subcutaneous (SC) injection of B12-Ex4 (1, 5, or 20 μg/kg) or vehicle (1 ml/kg sterile saline). Chow intake was measured at 1, 3, 6, and 24 h post-injection. Food spillage was accounted for in all intake measurements. Body weight was also measured at 0 and 24 h.
(§1) Pre-weighed food was returned to the rats after the OGTT, and chow intake was measured for ˜21.5 h (e.g., until 24 h after the SC injections). Spillage was accounted for in food intake measurements. Body weight was recorded at 0 and 24 h. For the OGTT, n=10 rats were tested; food and body weight data were collected from n=9 due to a technical error in food intake measurement.

[2] = Oral glucose tolerance test (OGTT); type: in vivo, Sprague Dawley rats; settings: rats
Method: Rats (n=12) were deprived of food overnight before testing. On the morning of testing, just after the onset of the […], water was also removed from the cage. A small drop of blood was collected from the tail tip and analyzed for blood glucose (BG) level using a standard glucometer (AccuCheck). Immediately after this baseline BG reading (t=−30 min), each rat received SC injection of B12-Ex4 (5 or 20 μg/kg) or vehicle (1 ml/kg sterile saline); doses of drug were selected based on the results of the feeding study. Thirty minutes later (t=0 min), BG was measured and each rat received an oral gavage of glucose (2 g/kg). Subsequent BG readings were taken at 20, 40, 60, and 120 min after glucose gavage. After the final BG reading, food and water were returned.
as §1

[3] = Intraperitoneal glucose tolerance test (IPGTT); type: in vivo, C57BL/6J mice; settings: mice
Method: The experimental procedure for IPGTT in mice was similar to that used for OGTT in rats. Briefly, mice (n=13; 8 females, 5 males) were food and water deprived for 4 h before and during the IPGTT. Testing was completed mid-light phase. Blood was collected from the tail tip and analyzed for BG. […] Thirty minutes later (t=0 min), BG was measured and each mouse received an IP injection of glucose (2 g/kg). Subsequent BG readings were taken at 20, 40, 60, and 120 min after glucose injection. After the final BG reading, food and water were returned. Area under the curve (AUC) was calculated from 0-120 min (e.g., beginning at the time of glucose administration) using the trapezoidal method.

[4] = Oral glucose tolerance test, food intake and nausea (kaolin consumption) in diabetic lean rats; type: in vivo; settings: Goto-Kakazaki rats; Ex-4 20 ug/Kg, B12-Ex4 equimolar, liraglutide 100 ug/Kg, 60 min pre-glucose
Method: FIG. 8 is a series of graphs showing a standard oral glucose tolerance test performed in Goto-Kakazaki rats, a form of naturally diabetic lean rat, along with food intake and nausea measurements.
Referring to FIG. 8, Testing of Ex-4 at 20 ug/Kg, B12-Ex4 at equimolar to Ex-4, and liraglutide at 100 ug/Kg were screened for glucoregulation, food intake reduction and nausea (kaolin consumption). All drugs were administered at 60 minutes pre-glucose bolus, food intake and nausea were tracked over 6 hours.

[5] = target: T1, Human recombinant TCII (Homo sapiens, UniProt P20062); test: TCII binding, radio chase assay using 57Co-labelled B12
T1 sequence (P20062 19-427): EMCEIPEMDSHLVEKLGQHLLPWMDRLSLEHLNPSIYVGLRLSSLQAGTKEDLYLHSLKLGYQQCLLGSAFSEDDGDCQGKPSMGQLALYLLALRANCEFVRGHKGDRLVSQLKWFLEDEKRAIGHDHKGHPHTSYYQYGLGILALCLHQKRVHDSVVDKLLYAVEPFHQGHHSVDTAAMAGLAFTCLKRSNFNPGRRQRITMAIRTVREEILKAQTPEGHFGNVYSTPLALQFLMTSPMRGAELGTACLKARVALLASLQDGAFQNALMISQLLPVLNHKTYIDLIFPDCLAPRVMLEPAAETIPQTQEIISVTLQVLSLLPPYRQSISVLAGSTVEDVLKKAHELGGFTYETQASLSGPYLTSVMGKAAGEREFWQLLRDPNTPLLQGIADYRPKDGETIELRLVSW
Description: FIG. 1 is a series of graphs of (A) Synthetic scheme for Cy5-B12, Cy5 alkyne was “clicked” onto a B12-azide conjugate. (B) RP-HPLC of Cy5-B12 showing purity ≥98% and LC-MS showing 1031[M+2H]^+2, 1042[M+Na+2H]^+2, and 1050 [M+K+2H]^+2, consistent with the conjugate. (C) Excitation and emission spectra of Cy5-B12 at 645 and 682 nm, respectively. […] Note that B12-Ex4 agonism at the GLP-1 receptor was previously reported (68 pM).
One addition to the characterization was the measure of TCII binding of B12-Ex4 (FIG. 1D), which was conducted at the Department of Clinical Medicine-Clinical Biochemistry, University of Aarhus, Denmark as described. […] Injections were separated by at least 48 h. For most in vivo experiments, injections were administered using a within-subjects, Latin square design. The exception was the conditioned taste avoidance (CTA) study, which used a between-subjects design.
In addition, the food intake- and body weight-suppressive effects of GLP-1R agonists have highlighted the utility of these pharmacotherapies for the treatment of obesity.

[6] = Conditioned taste avoidance (CTA), two-bottle test (nausea/malaise); type: in vivo, Sprague Dawley rats; settings: rats, IP, B12-Ex4 5 μg/kg, LiCl 0.15M
Method: Rats (n=8-10 per drug) were evaluated for expression of a CTA to a flavor paired with B12-Ex4 (5 μg/kg, IP). […] See Supplemental Methods for more details.

Compound: exendin-4 [Ex4]
food intake in the 21.5 h after OGTT ([1]; SC 5 or 20 μg/kg, vs vehicle): ate significantly less
body weight gain, 24 h ([1]; SC, vehicle versus 20 μg/kg p<0.05): gained less body weight
blood glucose by drug on its own (t=0, before glucose) ([2]; SC 5 or 20 μg/kg, 30 min after injection): increased BG on its own
blood glucose levels in the OGTT (overall) ([2]; SC 5 or 20 μg/kg, oral glucose 2 g/kg): pronounced hyperglycemic response
BG late after glucose gavage ([2]; B12-Ex4: both doses at 60 min, higher dose at 120 min, Ex4: 40, 60, 120 min): remained significantly elevated
BG prior to IP glucose injection (t=0) ([3]; 30 min after IP drug): reduced BG levels
blood glucose levels in the IPGTT ([3]; IP Ex4 5 μg/kg or equimolar B12-Ex4, IP glucose 2 g/kg): strongly attenuated the increase in blood glucose levels
BG at 20 min, Ex4 compared to B12-Ex4 ([3]; p<0.05): more potent effect
blood glucose area under the curve 0-120 min ([3]; post-glucose load, vs saline): hypoglycemic effects
hyperglycemia in OGTT [4]: does do

Kd [5]: 0.98 nM
Compound: Cyanocobalamin [cyano-B12]

Compound: [Cl-].[Li+] [LiCl, lithium chloride]
acceptance of the drug-paired flavor (CTA) [6]: produce avoidance of the drug-paired flavor
